Measured values taken from paper PMC8708274, “Unveiling the Membrane and Cell Wall Action of Antimicrobial Cyclic Lipopeptides: Modulation of the Spectrum of Activity” (Pharmaceutics, 2021).
Like-named read-outs stand apart in the source and are kept apart here. Positions of bridges follow the written chain, without caps; N, C: chain ends. Non-standard residues stand in square brackets, D forms with d. Residues, ends and D or L forms follow the SMILES beside them. No end group written: not given here. *: point of attachment. Lauroyl = CCCCCCCCCCCC(=O)*; Decanoyl = CCCCCCCCCC(=O)*; dNle = CCCC[C@@H](N)C(=O)O; X1 = CC[C@H](C)CCCCC(=O)*; Nle = CCCC[C@H](N)C(=O)O; Dab = NCC[C@H](N)C(=O)O

Assays:
[1] = Kinetics of insertion into monolayers; type: binding, Salmonella enterica serotype Minnesota Re 595; details: initial pressure 32 mN·m^−1, peptide 0.48 μM, 25 min after injection, 10 mM Tris pH 7.4, 25 °C, average of three independent experiments (error < 10%)
Procedure: (§1) Monolayer studies were performed at room temperature (25 °C) on a monolayer system (NIMA Technology, Coventry, UK) by using a cylindrical PTFE (Teflon®, Wilmington, DE, USA) trough (5 cm diameter) containing a continuously stirred aqueous phase (12 mL, 10 mM Tris pH 7.4) and a Wilhelmy platinum plate connected to an electrobalance. The system was enclosed in a Plexiglass box to reduce surface contamination, and before each run, the plate and the trough were cleaned with hot water at >70 °C to avoid carryover of lipid or peptide. Monolayers of POPG, POPE/POPG (6:4), POPC, or LPS were formed by applying small drops of the lipid stock solutions in CHCl3 on the aqueous subphase with a microsyringe (Hamilton Co., Reno, NV, USA) to achieve a surface pressure of 32 mN·m^−1. After 10 min, allowing for solvent evaporation, a known aliquot of peptide was added without disturbance of the monolayer via an inlet port, and the surface pressure was continuously monitored.

[2] = Kinetics of insertion into monolayers; type: binding; details: 25 min after injection, 10 mM Tris pH 7.4, 25 °C, average of three independent experiments (error < 10%); for Increase in surface pressure (Δπ), POPE/POPG: POPE/POPG 6:4, initial pressure 32 mN·m^−1, peptide 0.48 μM; for Increase in surface pressure (Δπ), POPC / Increase in surface pressure (Δπ), POPG: initial pressure 32 mN·m^−1, peptide 0.48 μM
Procedure: as §1

[3] = test system: fresh rabbit erythrocytes; test: Hemolysis assay; type: cell-based; details: 335 μM lipopeptide, 1 h at 37 °C, 10 mM Tris 80 mM NaCl pH 7.4, absorbance 540 nm, average of three independent experiments
Procedure: Hemolytic activity was evaluated on fresh rabbit erythrocytes collected in EDTA collection tubes, as previously described. Briefly, an erythrocite suspension in buffer (10 mM Tris, 80 mM NaCl pH 7.4) was obtained by centrifugation (three times, 10 min at 4000 rpm) and adjusted at an optical density of 1 at 540 nm. Aliquots of 200 µL were incubated for 1 h at 37 °C with the different lipopeptides in 96-well polypropylene microtiter plates and centrifuged (15 min, 5000 rpm). Lipopetide-induced hemolysis was determined by measuring the absorbance at 540 nm of released hemoglobin (Asample) in the supernatant. Each determination was done by triplicate, and as negative and positive controls, erythrocytes in buffer (A0%) and in distilled water (A100%) were employed, respectively. Hemolysis was calculated according the following equation: % hemolysis = 100 · (Asample − A0%/A100% − A0%).

[4] = test system: Staphylococcus aureus ATTC 25923; type: cell-based
Procedure: (§2) The minimal peptide concentration required to prevent the growth of a given test organism was determined after incubation overnight at 37 °C and was defined as the MIC. Activity was determined in representative bacteria, Escherichia coli ATTC 25922, Pseudomonas aeruginosa ATTC 27853, and Staphylococcus aureus ATTC 25923, using the broth microdilution method. Serial-two-fold dilutions of peptide (from 0.06 to 32 μg/mL) were performed in Mueller–Hinton broth (MHB) culture medium in sterile 96-well polypropylene microtiter plates inoculated with a final concentration of 5 × 10^5 CFU·mL^−1 of bacteria in each well. Bacteria were in the pre-exponential phase. Each determination was done by triplicate. In order to be considered acceptable, the three MIC results have to differ in only in one well, and the result was always given as the higher of the three. Drug-free and microorganism-free wells were used as positive and negative controls, respectively. Bacterial growth was visually determined on the basis of turbidity.

[5] = test system: Escherichia coli ATTC 25922; type: cell-based
Procedure: as §2

[6] = test system: Pseudomonas aeruginosa ATTC 27853; type: cell-based
Procedure: as §2

[7] = test system: Escherichia coli ATTC 25922; details: cited from earlier work
Procedure: Table 1 Sequences and antimicrobial activities of the synthesized peptides determined as minimal inhibitory concentration (MIC) calculated for different bacteria strains. | column: MIC/µg mL^−1 (µM) / EC ^1 || Figure 3 Comparative TEM micrographs of P. aeruginosa (left) and E. coli (right). Untreated bacteria (a,b); bacteria treated with polymyxin analogues at 1xMIC: P. aeruginosa with spB-3 (4 μg·mL^−1) (c), or with of spE-10 (1 μg·mL^−1) (e); E. coli treated with spB-3 (2 μg·mL^−1) (d) or spE-10 (8 μg·mL^−1) (f). Lipopeptides cause the alteration of the membranes, with blebs protruding, loss of membrane, clear cytoplasmic zones, and even ghost cells. Similar results are obtained with natural PxB ((g,h), this last one is adapted from (Rabanal et al. Sci. Rep. 2015).

[8] = test system: Staphylococcus aureus ATTC 25923; details: cited from earlier work
Procedure: C6 analogues are devoid of antibacterial effect both against Gram-positive and Gram-negative bacteria, with MICs higher than 32 μg·mL^−1. C8 analogues show some activity, especially against P. aeruginosa but not on Gram-positive S. aureus. […] For example, MIC of 4 μg·mL^−1 and 2 μg·mL^−1 against P. aeruginosa for spB-3 and spE-3 respectively are obtained, where ... || Since some of the polymyxin analogues also have good activities against S. aureus, the effects on the cell morphology of this Gram-positive bacteria were determined.

[9] = test system: Pseudomonas aeruginosa ATTC 27853; details: cited from earlier work
Procedure: C6 analogues are devoid of antibacterial effect both against Gram-positive and Gram-negative bacteria, with MICs higher than 32 μg·mL^−1. C8 analogues show some activity, especially against P. aeruginosa but not on Gram-positive S. aureus. […] For example, MIC of 4 μg·mL^−1 and 2 μg·mL^−1 against P. aeruginosa for spB-3 and spE-3 respectively are obtained, where ... || Figure 3 Comparative TEM micrographs of P. aeruginosa (left) and E. coli (right). Untreated bacteria (a,b); bacteria treated with polymyxin analogues at 1xMIC: P. aeruginosa with spB-3 (4 μg·mL^−1) (c), or with of spE-10 (1 μg·mL^−1) (e); E. coli treated with spB-3 (2 μg·mL^−1) (d) or spE-10 (8 μg·mL^−1) (f). Lipopeptides cause the alteration of the membranes, with blebs protruding, loss of membrane, clear cytoplasmic zones, and even ghost cells. Similar results are obtained with natural PxB ((g,h), this last one is adapted from (Rabanal et al. Sci. Rep. 2015).

[10] = broth microdilution, MHB, 5 × 10^5 CFU/mL, overnight 37 °C, triplicate, higher of the three
[11] = value in brackets, broth microdilution, MHB, overnight 37 °C, triplicate
[12] = taken from the literature (analogues #37, #38, #39)
[13] = value in brackets, taken from the literature

Compound	Increase in surface pressure (Δπ), LPS [1]	Increase in surface pressure (Δπ), POPE/POPG [2]	Increase in surface pressure (Δπ), POPC [2]	Increase in surface pressure (Δπ), POPG [2]	hemolysis [3]	MIC SA [4, 10]	MIC SA [4, 11]	MIC EC [5, 10]	MIC EC [5, 11]	MIC PA [6, 10]	MIC PA [6, 11]	MIC EC ([5]; ATTC 25922)	MIC SA ([4]; ATTC 25923)	MIC PA ([6]; ATTC 27853)	MIC EC [7, 12]	MIC EC [7, 13]	MIC SA [8, 12]	MIC SA [8, 13]	MIC PA [9, 12]	MIC PA [9, 13]
CC[C@H](C)CCCCC(=O)N[C@@H](CCN)C(=O)N[C@H](C(=O)N[C@@H](CCN)C(=O)N[C@H]1CCNC(=O)[C@H]([C@@H](C)O)NC(=O)[C@H](CCN)NC(=O)[C@H](CCN)NC(=O)[C@H](CC(C)C)NC(=O)[C@@H](Cc2ccccc2)NC(=O)[C@H](CCN)NC1=O)[C@@H](C)O [PxB, Polymyxin B, reference compound] (X1-[Dab]T[Dab][Dab][Dab][dF]L[Dab][Dab]T; lactam 4-C)	11.4 mN·m^−1	7.2 mN·m^−1	1.4 mN·m^−1	5.9 mN·m^−1	18%	> 32 µg/mL	> 27 µM	1 µg/mL	0.83 µM	0.5 µg/mL	0.42 µM									
CCCCCCCCCC(=O)N[C@@H](CCN)C(=O)N[C@H](C(=O)N[C@@H](CCN)C(=O)N[C@H]1CSSC[C@H](C(N)=O)NC(=O)[C@H](CCN)NC(=O)[C@H](CCN)NC(=O)[C@H](CCCC)NC(=O)[C@@H](CCCC)NC(=O)[C@H](CCN)NC1=O)[C@@H](C)O [spE-7] (Decanoyl-[Dab]T[Dab]C[Dab][dNle][Nle][Dab][Dab][dC]-NH2; disulfide 4-10)	14.2 mN·m^−1	6.8 mN·m^−1	1.4 mN·m^−1	8.2 mN·m^−1		8 µg/mL	6.7 µM	2 µg/mL		2 µg/mL	1.7 µM	1.7 µM								
CCCCCCCCCCCC(=O)N[C@@H](CCN)C(=O)N[C@H](C(=O)N[C@@H](CCN)C(=O)N[C@H]1CSSC[C@H](C(N)=O)NC(=O)[C@H](CCN)NC(=O)[C@H](CCN)NC(=O)[C@H](CCCC)NC(=O)[C@@H](CCCC)NC(=O)[C@H](CCN)NC1=O)[C@@H](C)O [spE-8] (Lauroyl-[Dab]T[Dab]C[Dab][dNle][Nle][Dab][Dab][dC]-NH2; disulfide 4-10)	12.5 mN·m^−1	9.8 mN·m^−1	1.3 mN·m^−1	7.4 mN·m^−1		4 µg/mL		4 µg/mL		4 µg/mL		3.3 µM	3.3 µM	3.3 µM						
Decanoyl-[Dab]T[Dab]C[Dab]F[Nle][Dab][Dab]C (disulfide 4-10 (inferred)) [spB-7, Series II-PxB analogue, decanoyl, Nle in position 7]	9.3 mN·m^−1	6.5 mN·m^−1	2.1 mN·m^−1	4.2 mN·m^−1											2 µg/mL	1.6 µM	4 µg/mL	3.2 µM	1 µg/mL	0.81 µM
